The values that follow come from US5610320A, “Sulfonamide phenyl substituted compounds” (Eisai Co., Ltd., priority 1990, dated 1997).

A word on the IC50: it is the concentration at which inhibition is half-maximal.

Structures are written as SMILES. Converted amounts (≈) assume the structure as drawn. Read-outs that look alike come from different tables or passages of the source.

For data set [1], the system named is KB cells (human nasopharyngeal cells). Briefly: In vitro antineoplastic test on KB cells (MTT, 3 days). It is filed as cell-based. The note with it: 72 h, KB cells in vitro, 37° C. for three days, MTT, read-out: IC50.
Description: In vitro antineoplastic test on KB cells (human nasopharyngeal cells):
1.25×10^3 (0.1 ml) of KB cells suspended in a RPMI 1640 medium (a product of Nissui Seiyaku Co., Ltd.) containing 20% of bovine fetus serum, penicillin (100 units/ml), streptomycin (100 μg/ml), mercaptoethanol (5×10^-5 M) and sodium pyruvate (1 mM) were placed in each hole of a 96-hole flat-bottom microplate and cultured in an incubator containing 5% of carbon dioxide at 37° C. for one day.
This concentration was the maximum one, which was subjected to two-fold serial dilution with 0.1% bovine fetus serum RPMI 1640 culture liquid containing 0.5% of dimethyl sulfoxide. It was added to the KB cells in each hole of the above-described culture plate in an amount of 0.1 ml and cultured in an incubator containing 5% of carbon dioxide at 37° C. for three days.
After the completion of the culture, 0.05 ml of MTT [3-(4,5-dimethylthiazol-2-yl)-2,5-diphenyltetrazolium bromide] solution (3.3 mg/ml) was added to each hole and the culture was conducted for an additional 1 h. The supernatant liquid was removed from each hole by suction and a formazan thus formed was dissolved in 0.1 ml of dimethyl sulfoxide. The absorbance at 540 nm was determined with a microplate reader to use as an index of a viable count. A percentage inhibition was calculated according to the following formula and the concentration of the test compound for 50% inhibition (IC50) was determined.
Percentage inhibition (%)=(C-T)/C×100
T: absorbance of the hole containing the test compound
C: absorbance of the hole containing no test compound
Data set [2] has as its system colon 38 (cancer of the colon of mice). It is filed as in vivo, mice (BDF1, female). The note with it: once a day for 8 days, 21 days after transplantation. How it is done:
In vivo antineoplastic test on colon 38 (cancer of the colon of mice):
About 75 mg of colon 38 was subcutaneously transplanted in the side of the body of each of 7-week old female BDF1 mice. A compound of the present invention was suspended in 0.5% methylcellulose and oral administration of a predetermined amount of the suspension once a day was started on the next day and continued for 8 days. 0.5% methylcellulose was orally given to a control group. The control group consisted of 10 mice and the group to which the medicine was given consisted of 6 mice.
21 days after the transplantation, the tumors were taken out and weighed. The tumor growth inhibition ratio of the group to which the medicine was given to the control group was determined according to the following formula:
Growth inhibition ratio (%) (C-T)/C×100
T: average weight of tumor in the group to which the test compound was given
C: average weight of tumor in the control group

Data set [3] relates to BDF1 mice. Further details: species or system female). The note with it: mouse, in vivo, 1651 mg/kg. On the procedure:
EXPERIMENTAL EXAMPLE 3: Toxicity tests
No mouse died, even with 1651 mg/kg of the compound.

With `Cc1ccc(S(=O)(=O)Nc2cccnc2Nc2ccccc2)cc1` [Example 1, N-(2-Anilino-3-pyridyl)-p-toluenesulfonamide], the IC50 in data set [1] is 1.5 µg/mL (≈ 4.42 µM). Also, the Growth inhibition ratio in data set [2] (100 mg/kg/day oral) was determined as 80%.

As for `CCc1ccc(S(=O)(=O)Nc2cccnc2Nc2ccccc2)cc1` [Example 2, N-(2-Anilino-3-pyridyl)-4-ethylbenzenesulfonamide], the IC50 in data set [1] was 1.7 µg/mL (≈ 4.81 µM). In addition, the Growth inhibition ratio in data set [2] (100 mg/kg/day oral) was found to be 69%.

For `COc1ccc(S(=O)(=O)Nc2cccnc2Nc2ccccc2)cc1` [Example 3, N-(2-Anilino-3-pyridyl)-4-methoxybenzenesulfonamide], in data set [1], the IC50 is 0.27 µg/mL (≈ 0.76 µM). Besides, the Growth inhibition ratio in data set [2] (100 mg/kg/day oral) came to 98%. Further, the “viability observed for 7 days after the administration” value (“viability observed for 7 days” for short) in data set [3] is recorded as “No mouse died”.

Turning to `COc1ccc(Nc2ncccc2NS(=O)(=O)c2ccc(OC)cc2)cc1` [Example 4, 4-Methoxy-N-[2-[(4-methoxyphenyl)amino]-3-pyridyl]benzenesulfonamide], the IC50 in data set [1] was 1.9 µg/mL (≈ 4.93 µM). In addition, the Growth inhibition ratio in data set [2] (100 mg/kg/day oral) is 99%. Besides, in data set [3], the “viability observed for 7 days” value is on record as “No mouse died”.

Consider `COc1ccc(S(=O)(=O)Nc2cccnc2Nc2ccc(O)cc2)cc1` [Example 6, N-[2-[(4-Hydroxyphenyl)amino]-3-pyridyl]-4-methoxybenzenesulfonamide], for which, in data set [1], the 50% inhibitory concentration (IC50) was 0.42 µg/mL (≈ 1.13 µM). For the same molecule, the Growth inhibition ratio in data set [2] (100 mg/kg/day oral) turned out to be 98%. The “viability observed for 7 days” value in data set [3] was “No mouse died”.

As to `COc1ccc(S(=O)(=O)Nc2cccnc2Nc2ccncc2)cc1` [Example 7, 4-Methoxy-N-[2-[(4-pyridyl)amino]-3-pyridyl]benzenesulfonamide], in data set [1], the IC50 came to 1 µg/mL (≈ 2.81 µM). The Growth inhibition ratio in data set [2] (50 mg/kg/day oral) amounted to 61%.

Regarding `COc1ccc(S(=O)(=O)Nc2ccccc2NC(=O)c2cccnc2C)cc1` [Example 70, N-[2-(4-Methoxybenzenesulfonamido)phenyl]-2-methylnicotinamide], the IC50 in data set [1] turned out to be 0.033 µg/mL (≈ 0.083 µM). Also, the Growth inhibition ratio in data set [2] (50 mg/kg/day oral) is 63%.
